24 compounds from patent US9598424B2 (Takeda Pharmaceutical Company Limited, priority 2014, dated 2017) can be followed below.

One test concerns the target T1, Full length human TBK1 (Homo sapiens, UniProt Q9UHD2).
T1 construct: Full length human TBK1 with an N-terminal His-tag; His-tag (N); made in house; host or cells: Sf9 insect cells (baculovirus, pFastBac1)
T1 sequence (Q9UHD2 1-729): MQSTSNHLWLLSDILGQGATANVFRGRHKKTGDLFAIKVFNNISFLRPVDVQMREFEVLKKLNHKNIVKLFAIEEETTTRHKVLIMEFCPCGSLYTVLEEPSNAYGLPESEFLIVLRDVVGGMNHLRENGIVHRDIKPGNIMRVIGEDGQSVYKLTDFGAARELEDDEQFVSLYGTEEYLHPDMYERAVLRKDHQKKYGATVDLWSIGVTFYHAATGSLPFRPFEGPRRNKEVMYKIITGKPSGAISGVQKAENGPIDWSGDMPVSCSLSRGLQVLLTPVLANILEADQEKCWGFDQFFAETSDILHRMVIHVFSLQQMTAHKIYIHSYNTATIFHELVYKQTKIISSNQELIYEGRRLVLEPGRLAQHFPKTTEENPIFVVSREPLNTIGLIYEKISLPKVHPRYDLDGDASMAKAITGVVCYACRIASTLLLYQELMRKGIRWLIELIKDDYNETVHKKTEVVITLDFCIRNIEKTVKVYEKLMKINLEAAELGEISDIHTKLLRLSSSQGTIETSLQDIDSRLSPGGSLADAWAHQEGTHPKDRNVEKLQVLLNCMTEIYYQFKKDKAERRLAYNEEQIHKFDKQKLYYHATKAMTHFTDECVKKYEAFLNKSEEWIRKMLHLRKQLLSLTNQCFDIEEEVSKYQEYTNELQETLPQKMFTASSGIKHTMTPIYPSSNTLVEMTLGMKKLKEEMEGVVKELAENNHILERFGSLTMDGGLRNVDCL
Put plainly: Inhibition of TBK1 Enzyme (Caliper microfluidic assay). Format: biochemical. The following applies: 25 μM ATP, 60 min at RT, -log(IC50), IC50 molar; for IC50: read-out: TBK1 Inhibition (pIC50) (converted). An outline of the steps:
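Enzyme: His-tagged full-length TBK1 expressed in Sf9. Reaction 60 min at RT in 20 mM Hepes pH 7.4, 10 mM MgCl2, 1 mM EDTA, 0.01% Brij-L23, 1 mM DTT, with 5FAM-peptide (added at 1 μM) and TBK1/ATP mix (added at 3 nM/25 μM), then EDTA-quenched. Conversion measured by microfluidic separation; 11-point 2.5-fold series fit to pIC50.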

The next test has as its target T2, TBK1 (Homo sapiens, UniProt Q9UHD2).
T2 construct: host or cells: RA1-ISRE beta-lactamase reporter cells
T2 sequence (Q9UHD2 1-729): T1 sequence (Q9UHD2 1-729)
Put plainly: Inhibition of TBK1 in Cells (TLR3 driven ISRE β-lactamase reporter assay). The following applies: poly IC-LMW stimulation 16 hrs, -log(EC50), EC50 molar; for EC50: read-out: Inhibition of TBK1 in cells pEC50 (EC) (converted). In kind it is cell-based. An outline of the steps: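 RA1-ISRE β-lactamase reporter cells (50,000/well) treated with 11-point 2.5-fold compound dilutions and stimulated with 0.15 mg/ml poly IC-LMW for 16 hrs. Reporter read by CCF4-AM FRET; EC50 from non-linear fit of percent inhibition, reported as pEC50 (molar).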

As to `O=C(N[C@H]1CCCC[C@H]1O)c1cc(-c2ccc3nc(NC(=O)C4CC4)cn3c2)cs1` [Example 76, 4-(2-(cyclopropanecarboxamido)imidazo[1,2-a]pyridin-6-yl)-N-((1S,2R)-2-hydroxycyclohexyl)thiophene-2-carboxamide], the IC50 on Full length human TBK1 was 15.8 nM. For the same compound, on TBK1, the EC50 was 912 nM.
The matching figures for `O=C(N[C@H]1CCCOC1)c1cc(-c2ccc3nc(NC(=O)C4CC4)cn3c2)cs1` [Example 68, (S)-4-(2-(cyclopropanecarboxamido)imidazo[1,2-a]pyridin-6-yl)-N-(tetrahydro-2H-pyran-3-yl)thiophene-2-carboxamide]: 10 nM and 1020 nM.
On to `O=C(NC1CCCC1=O)c1cc(-c2ccc3nc(NC(=O)C4CC4)cn3c2)cs1` (stereo not drawn) [Example 85, 4-(2-(cyclopropanecarboxamido)imidazo[1,2-a]pyridin-6-yl)-N-(2-oxocyclopentyl)thiophene-2-carboxamide], for which the IC50 on Full length human TBK1 is 100 nM. In addition, the EC50 at TBK1 is 4070 nM.
On to `O=C(Nc1cn2cc(-c3csc(C(=O)N4CCOCC4)c3)ccc2n1)C1CC1` [Example 54, N-{6-[5-(morpholine-4-carbonyl)thiophen-3-yl]imidazo[1,2-a]pyridin-2-yl}cyclopropanecarboxamide], for which, at Full length human TBK1, the IC50 was 251 nM. Further, the EC50 at TBK1 is 20000 nM.
The matching figures for `C[C@@H](NC(=O)c1cc(-c2ccc3nc(NC(=O)C4CC4)cn3c2)n[nH]1)C(F)(F)F` [Example 104, (R)-3-(2-(cyclopropanecarboxamido)imidazo[1,2-a]pyridin-6-yl)-N-(1,1,1-trifluoropropan-2-yl)-1H-pyrazole-5-carboxamide]: 5.01 nM and 166 nM.
On the same counts, the results for `O=C(N[C@H]1CCOC1)c1nc(-c2ccc3nc(NC(=O)C4CC4)cn3c2)cs1` [Example 87, (S)-4-(2-(cyclopropanecarboxamido)imidazo[1,2-a]pyridin-6-yl)-N-(tetrahydrofuran-3-yl)thiazole-2-carboxamide] are 63.1 nM and 2880 nM.
For `C[C@H](NC(=O)c1cc(-c2ccc3nc(NC(=O)C4CC4)cn3c2)cs1)C(F)(F)F` [Example 80, (S)-4-(2-(cyclopropanecarboxamido)imidazo[1,2-a]pyridin-6-yl)-N-(1,1,1-trifluoropropan-2-yl)thiophene-2-carboxamide], at Full length human TBK1, the IC50 is 63.1 nM. Further, the EC50 on TBK1 was 1380 nM.
Consider “(R)-4-(2-(cyclopropanecarboxamido)imidazo[1,2-a]pyrazin-6-yl)-N-(1,1,1-trifluoropropan-2-yl)thiazole-2-carboxamide [Example 7]”, for which, at Full length human TBK1, the “TBK1 Inhibition (pIC50)” value stood at 8.1. The “Inhibition of TBK1 in cells pEC50 (EC)” value at TBK1 was determined as 6.41.
As to `O=C(NCC(F)(F)F)c1nc(-c2cn3cc(NC(=O)C4CC4)nc3cn2)cs1` [Example 6, 4-(2-(cyclopropanecarboxamido)imidazo[1,2-a]pyrazin-6-yl)-N-(2,2,2-trifluoroethyl)thiazole-2-carboxamide], the IC50 on Full length human TBK1 is 7.94 nM. The EC50 at TBK1 is 355 nM.
On the same counts, the results for `CN(CC(F)(F)F)C(=O)c1cc(-c2ccc3nc(NC(=O)C4CC4)cn3c2)cs1` [Example 28, 4-(2-(cyclopropanecarboxamido)imidazo[1,2-a]pyridin-6-yl)-N-methyl-N-(2,2,2-trifluoroethyl)thiophene-2-carboxamide] are 12.6 nM and 676 nM.
The matching figures for `N[C@@H]1CCCC(F)(F)[C@@H]1NC(=O)c1cc(-c2ccc3nc(NC(=O)C4CC4)cn3c2)cs1` [Example 125, N-((1R,6R)-6-amino-2,2-difluorocyclohexyl)-4-(2-(cyclopropanecarboxamido)imidazo[1,2-a]pyridin-6-yl)thiophene-2-carboxamide]: 6.31 nM and 19.1 nM.
The matching figures for `N[C@H]1CCCC(F)(F)[C@@H]1NC(=O)c1cc(-c2ccc3nc(NC(=O)C4CC4)cn3c2)cs1` [Example 126, N-((1R,6S)-6-amino-2,2-difluorocyclohexyl)-4-(2-(cyclopropanecarboxamido)imidazo[1,2-a]pyridin-6-yl)thiophene-2-carboxamide]: 10 nM and 55 nM.
Consider `O=C(NCCC(F)(F)F)c1cc(-c2ccc3nc(NC(=O)C4CC4)cn3c2)cs1` [Example 78, 4-(2-(cyclopropanecarboxamido)imidazo[1,2-a]pyridin-6-yl)-N-(3,3,3-trifluoropropyl)thiophene-2-carboxamide], for which, on Full length human TBK1, the IC50 is 10 nM. For the same compound, the EC50 on TBK1 was 479 nM.
`O=C(Nc1cn2cc(-c3csc(C(=O)N4CC(O)C4)n3)ccc2n1)C1CC1` [Example 113, N-(6-(2-(3-hydroxyazetidine-1-carbonyl)thiazol-4-yl)imidazo[1,2-a]pyridin-2-yl)cyclopropanecarboxamide]: the IC50 at Full length human TBK1 is 126 nM. Further, the EC50 at TBK1 was 2690 nM.
`C[C@H](NC(=O)c1nc(-c2ccc3nc(NC(=O)C4CC4)cn3c2)c[nH]1)C(F)(F)F` [Example 10, 4-{2-cyclopropaneamidoimidazo[1,2-a]pyridin-6-yl}-N-[(2S)-1,1,1-trifluoropropan-2-yl]-1H-imidazole-2-carboxamide]: at Full length human TBK1, the IC50 is 316 nM. Further, the EC50 on TBK1 is over 50100 nM.
The matching figures for `O=C(Nc1cn2cc(-c3cc(C(=O)N4CCC[C@@H]4C(F)(F)F)n[nH]3)ccc2n1)C1CC1` [Example 52, (R)-N-(6-(3-(2-(trifluoromethyl)pyrrolidine-1-carbonyl)-1H-pyrazol-5-yl)imidazo[1,2-a]pyridin-2-yl)cyclopropanecarboxamide]: 6.31 nM and 148 nM.
The matching figures for `O=C(NCC(F)(F)F)c1ccn(-c2cn3cc(NC(=O)C4CC4)nc3cn2)n1` [Example 36, 1-(2-(cyclopropanecarboxamido)imidazo[1,2-a]pyrazin-6-yl)-N-(2,2,2-trifluoroethyl)-1H-pyrazole-3-carboxamide]: 10 nM and 245 nM.
The matching figures for `O=C(NCC(F)F)c1cc(-c2ccc3nc(NC(=O)C4CC4)cn3n2)cs1` [Example 18, 4-(2-(cyclopropanecarboxamido)imidazo[1,2-b]pyridazin-6-yl)-N-(2,2-difluoroethyl)thiophene-2-carboxamide]: 10 nM and 251 nM.
`O=C(NCC(F)(F)F)c1cc(-c2ccc3nc(NC(=O)C4CC4)cn3c2)cs1` [Example 32, 4-(2-(cyclopropanecarboxamido)imidazo[1,2-a]pyridin-6-yl)-N-(2,2,2-trifluoroethyl)thiophene-2-carboxamide]: on Full length human TBK1, the IC50 is 5.01 nM. For the same compound, on TBK1, the EC50 is 120 nM.
On the same counts, the results for `C[C@@H](NC(=O)c1cc(-c2ccc3nc(NC(=O)C4CC4)cn3c2)cs1)C(F)(F)F` [Example 81, (R)-4-(2-(cyclopropanecarboxamido)imidazo[1,2-a]pyridin-6-yl)-N-(1,1,1-trifluoropropan-2-yl)thiophene-2-carboxamide] are 2.51 nM and 44.7 nM.
On the same counts, the results for `O=C(Nc1cn2cc(-c3cc(C(=O)N4CCCC4)[nH]n3)ccc2n1)C1CC1` [Example 116] are 200 nM and 3020 nM.
In the case of `O=C(CF)Nc1cn2cc(-c3csc(C(=O)NCC(F)(F)F)c3)ccc2n1` [Example 16, 4-(2-(2-fluoroacetamido)imidazo[1,2-a]pyridin-6-yl)-N-(2,2,2-trifluoroethyl)thiophene-2-carboxamide], on Full length human TBK1, the IC50 is 79.4 nM. For the same compound, at TBK1, the EC50 was 1050 nM.
On the same counts, the results for `NC(=O)C1CCN(C(=O)c2nc(-c3ccc4nc(NC(=O)C5CC5)cn4c3)cs2)C1` (stereo not drawn) [Example 98, 1-(4-(2-(cyclopropanecarboxamido)imidazo[1,2-a]pyridin-6-yl)thiazole-2-carbonyl)pyrrolidine-3-carboxamide] are 200 nM and 14500 nM.
Turning to `CC(F)(F)CNC(=O)c1cc(-c2ccc3nc(NC(=O)C4CC4)cn3c2)cs1` [Example 57, 4-(2-(cyclopropanecarboxamido)imidazo[1,2-a]pyridin-6-yl)-N-(2,2-difluoropropyl)thiophene-2-carboxamide], the IC50 on Full length human TBK1 was 10 nM. Moreover, the EC50 on TBK1 is 219 nM.
